Reference: patent US6884907B2, “Hydroxamic acids and acyl hydroxamines as naaladase inhibitors” (Guilford Pharmaceuticals Inc., priority 2001, dated 2005)

Columns and labels:
NAALADase = target: T1, NAALADase (Homo sapiens, UniProt Q04609); assay: In vitro inhibition of NAALADase activity; format: biochemical; conditions: average IC50 values
T1 construct: from tissue; host or cells: unspecified tissue
Experimental: Various compounds of the invention were tested for in vitro inhibition of NAALADase activity. The average IC50 values of the tested compounds are provided bewlow in Table II.
Protocol for Assaying In Vitro Inhibition of NAALADase Activity
The following were combined in assay tubes: 100 μL of 10 mM CoCl2, 250 μL of 200 mM Tris chloride, 100 μL tissue, 100 μL of 10 mM NAALADase inhibitor in Bakers H2O, and Bakers H2O to make a total volume of 950 μL. Each assay tube was then incubated for 10 minutes in a 37° C. water bath. 50 μL of 3-H-NAAG was then added to each assay tube and incubated for an additional 15 minutes in at 37° C. water bath. The assay was stopped by adding 1.0 ml of 0.1 M sodium phosphate.
Glutamate released by the action of the NAALADase enzyme was separated from the assay solution using an anion exchange resin. The resin was equilibrated to 25° C., 2.0 ml of the resin was added to a Pasteur pipette pre-loaded with a single glass bead, and each column was washed twice with distilled H2O. A column was placed over a scintillation vial and 200 μL of an assay sample was loaded onto the column. After draining, glutamate was eluted using two 1.0 ml washes of 1 M formic acid. After addition of 10 ml of scintillation cocktail, each sample was counted for 2 minutes on a scintillation counter.

STZ-diabetic rats [1] = assay: Reversal of diabetic neuropathy in STZ model, delayed dosing: thermal hyperalgesia; format: in vivo; conditions: for neuropathic hyperalgesia (withdrawal latency): daily p.o., treatment started 5 weeks post STZ, within two weeks of treatment, FIG. 20
Experimental: (§1) Rats (200-225 grams) were injected with STZ (70 mg/kg) into the tail vein. Diabetes (>350 mg/dl) was confirmed in all rats, 4 weeks after STZ administration. Rats were left untreated until 35-49 days after STZ. Compound D (1, 3, or 10 mg/kg), Compound E (10 mg/kg), or vehicle were dosed daily p.o. following confirmation of hyperalgesia and/or nerve conduction velocity deficits. In separate experiments, onset of treatment was delayed until 60 to 90 days after STZ administration. Nerve conduction velocity or withdrawal response to thermal stimulation of hind paws was measured at intervals, usually bi-weekly for thermal response and monthly for nerve conduction velocity.
Animals were acclimated to the apparatus for at least 5 min. An infrared source was placed under below the plantar surface of the rat hind-paw. The intensity of the source was adjusted so that latency for normal rats was about 10 secs. Animals were tested for thermal response latency according to the method of Hargreaves et al (Pain 77-88, 1988). Each animal was tested 8 times (4 each hind limb) and the latency of response recorded automatically to nearest 0.1 sec. An average of the last 4 measurements for each paw was calculated (8 total measurements) and noted for each rat.

STZ-diabetic rats [2] = assay: Reversal of diabetic neuropathy in STZ model, delayed dosing: nerve conduction velocity; format: in vivo; conditions: for motor nerve conduction velocity: daily p.o., within 8 weeks of dosing, persisted through 12 weeks, FIG. 21
Experimental: as §1
Sensory and motor nerve conduction velocities were evaluated using the method of De Koning and Gispen (Peptides 8: 415-422, 1987). Electrophysiological evaluation was carried out within one hour of dosing. Animals were anesthetized with isoflurane and stimulating needle electrodes were inserted close to the sciatic nerve at the sciatic notch and the tibial nerve near the ankle. Recording electrodes were placed over the foot muscles. Stimuli were applied and responses recorded. Motor and sensory nerve conduction velocities were calculated by measuring the distance between the sciatic notch and ankle sites, and the latency between the M-wave and the H-reflex.

[3] = test system: STZ-induced diabetic rats; assay: Neuropathic pain in STZ model (thermal nociception, Hargreaves apparatus); format: in vivo, Male Sprague-Dawley rats; conditions: 10 mg/kg i.p. daily, treatment started 45 days post-STZ, FIGS. 7A and 7B
Experimental: Male Sprague-Dawley rats (200-225 g) were rendered diabetic by intravenous administration of streptozotocin (“STZ”, 70 mg/kg in phosphate buffered saline). Diabetic animals were divided into five groups: one group receiving Compound A (10 mg/kg or 1 mg/kg), Compound D (10 mg/kg or 1 mg/kg) or vehicle. Another group of animals (non-STZ treated) served as non-diabetic controls. Drug/vehicle treatment was started in diabetic animals 45 days post-STZ administration. STZ-induced diabetic rats were tested for sensitivity to a heat source as soon as blood glucose levels rose to 320 mg/dl or above (30 days post STZ). The rats were then acclimated to a Hargreaves apparatus and thermal nociception was monitored using an infrared heat source directed into the dorsal surface of the hindpaw, and the time taken for the animal to remove its paw noted to the nearest 0.1 seconds (see Hargreaves et al., supra, for detailed experimental method). The intensity of the beam source was adjusted such that the mean latency for control animals (non-STZ treated) was approximately 10 seconds. Each animal was tested 8 times and the mean difference score (between mean non-diabetic control latency and mean diabetic latency) are graphically presented in FIGS. 7A and 7B.

STZ-diabetic animals = assay: Diabetic neuropathy in STZ model (nerve conduction velocity); format: in vivo, rats; conditions: either dose (1 or 10 mg/kg), versus diabetic controls, FIGS. 10A and 10B
Experimental: Motor and sensory nerve conduction velocity was also measured in STZ-diabetic animals after 4, 8 and 12 weeks of treatment (see De Koning et al., supra, for a description of the experimental method). Briefly, stimulating needle electrodes were inserted close to the sciatic and tibial nerves with recording electrodes being placed subcutaneously over the distal foot muscles, in anesthetized rats.

BB/W diabetic rats = assay: Progression of neuropathic pain and nerve conduction deficits in BB/W model; format: in vivo, Male BB/W rats
From the text: Male BB/W rats (BRI, Mass) spontaneously develop a cell mediated autoimmune destruction of pancreatic B cells, resulting in onset of insulin-dependent (Type I) diabetes (Guberski 1994). […] This renders them valuable for experimental trials of new compounds for future treatments of this major disorder. In the present study, Compound D and Compound A were examined for their ability to alter the progression of diabetic neuropathy. The rats received daily injection of Compound D or Compound A (10 mg/kg i.p.) or vehicle, starting at the onset of diabetes (hyperglycemia) and up to 6 months thereafter. Another group of non-diabetic rats also receiving vehicle were tested. All animals were continuously monitored for body weight, urine volume, blood sugar and glycated haemoglobin. In the first month of the study, all animals were tested for thermal nociception in a Hargreaves apparatus, weekly. After the first month this was done biweekly and then monthly. The testing consists of directing an infrared heat source onto the dorsal surface of the rat hindpaw and noting the time taken for the animal to remove its paw (see Hargreaves et al., supra, for a description of the experimental method). Each animal was tested 8 times and the mean withdrawal latency noted.
Nerve conduction velocity was also measured every two weeks through the first eight weeks of treatment and every month thereafter through to the six months of treatment (see De Koning et al., Peptides, Vol. 8, No. 3, pp. 415-22 (1987) for a description of the experimental method). […] This was apparent starting at 8 weeks of treatment and persisted to a similar degree through to the six month termination point of the study.

T1 sequence (Q04609 whole entry): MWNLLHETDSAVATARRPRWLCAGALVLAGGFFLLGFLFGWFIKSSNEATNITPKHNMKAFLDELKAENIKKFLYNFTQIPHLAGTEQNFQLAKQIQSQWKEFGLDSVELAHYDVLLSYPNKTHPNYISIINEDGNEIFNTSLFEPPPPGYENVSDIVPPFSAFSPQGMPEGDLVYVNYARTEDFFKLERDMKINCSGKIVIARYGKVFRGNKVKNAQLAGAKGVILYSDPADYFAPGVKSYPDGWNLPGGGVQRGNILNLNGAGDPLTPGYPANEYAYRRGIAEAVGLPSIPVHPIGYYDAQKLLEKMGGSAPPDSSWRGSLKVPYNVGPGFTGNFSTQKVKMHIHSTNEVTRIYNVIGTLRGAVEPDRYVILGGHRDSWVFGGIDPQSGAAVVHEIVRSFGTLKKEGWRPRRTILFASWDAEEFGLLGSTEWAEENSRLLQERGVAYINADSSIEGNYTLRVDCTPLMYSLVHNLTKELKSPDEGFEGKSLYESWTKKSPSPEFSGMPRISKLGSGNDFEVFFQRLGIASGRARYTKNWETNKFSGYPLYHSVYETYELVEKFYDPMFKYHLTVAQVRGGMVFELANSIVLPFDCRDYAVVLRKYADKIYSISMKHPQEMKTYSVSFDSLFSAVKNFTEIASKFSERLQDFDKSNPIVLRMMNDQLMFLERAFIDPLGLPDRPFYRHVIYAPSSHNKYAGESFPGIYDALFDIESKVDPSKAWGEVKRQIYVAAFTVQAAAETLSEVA

IC50 (NAALADase) [µM]	SMILES	other results
0.06	CC(C)(C)c1cc(CC(CCC(=O)NO)C(=O)O)cc(C(=O)O)c1 (stereo not drawn) [Compound 2, 3-tert-Butyl-5-(2-carboxy-4-hydroxycarbamoyl-butyl)-benzoic acid]	–
100	COC(=O)c1cccc(CC(C(=O)O)C(=O)NO)c1 (stereo not drawn) [Compound 10, 3-(2-Carboxy-2-hydroxycarbamoyl-ethyl)-benzoic acid methyl ester]	–
0.4	O=C(CSCCCC(Cc1cccc(C(=O)O)c1)C(=O)O)NO (stereo not drawn) [Compound 17, 3-(2-Carboxy-5-hydroxycarbamoylmethyl-sulfanylpentyl)-benzoic acid]	–
4	CCC(SCCCC(Cc1cccc(C(=O)O)c1)C(=O)O)C(=O)NO (stereo not drawn) [Compound 19, 3-[2-Carboxy-5-(1-hydroxycarbamoyl-propylsulfanyl)-pentyl]-benzoic acid]	–
3	O=C(CSCCCC(Cc1ccc(C(=O)O)c(Br)c1)C(=O)O)NO (stereo not drawn) [Compound 65, 2-Bromo-4-(2-carboxy-5-hydroxycarbamoylmethyl-sulfanylpentyl)-benzoic acid]	–
0.5	CC(C)(C)c1cc(CC(CCCC(=O)NO)C(=O)O)cc(C(=O)O)c1 (stereo not drawn) [Compound 71]	–
0.05	O=C(CCC(Cc1cccc(-c2cccc(C(=O)O)c2)c1)C(=O)O)NO (stereo not drawn) [Compound 72]	–
2	O=C(CCC(Cc1ccccc1C(=O)O)C(=O)O)NO (stereo not drawn) [Compound 73]	–
3	CS(=O)(=O)c1ccc(CC(CCC(=O)NO)C(=O)O)cc1 (stereo not drawn) [Compound 74]	–
0.03	O=C(CCC(Cc1ccc(C(=O)O)cc1)C(=O)O)NO (stereo not drawn) [Compound 75, 4-[2-carboxy-5-(hydroxyamino)-5-oxopentyl]benzoic acid]	–
100	O=CN(O)CCCCC(Cc1cccc(C(=O)O)c1)C(=O)O (stereo not drawn) [Compound 76]	–
2.22	O=CN(O)CCCC(Cc1cccc(C(=O)O)c1)C(=O)O (stereo not drawn) [Compound 77]	–
10.3	O=CN(O)CCC(Cc1cccc(C(=O)O)c1)C(=O)O (stereo not drawn) [Compound 78]	–
65.5	O=CN(O)CCC(Oc1cccc(C(=O)O)c1)C(=O)O (stereo not drawn) [Compound 79]	–
9	O=C(O)CNC(=O)c1cc(C(=O)O)cc(C(=O)NO)c1 [Compound 81]	–
2	O=C(O)CCC(CCC(=O)NO)C(=O)O (stereo not drawn) [Compound 83]	–
40	O=C(O)CCC(=O)NO [Compound 84]	–
0.9	O=C(O)CCC(CCCC(=O)NO)C(=O)O (stereo not drawn) [Compound 85]	–
4	O=C(O)CCC(C(=O)O)C(=O)NO (stereo not drawn) [Compound 86]	–
25.8	O=C(Cc1ccc(CC(Cc2cccc(C(=O)O)c2)C(=O)O)cc1)NO (stereo not drawn) [Compound 90]	–
40	O=C(O)CCC(Cc1cccc(C(=O)NO)c1)C(=O)O (stereo not drawn) [Compound 94]	–
–	O=C(O)CCC(CCS)C(=O)O (stereo not drawn) [Compound D, 2-(2-sulfanylethyl)pentanedioic acid]	neuropathic hyperalgesia (withdrawal latency) (STZ-diabetic rats [1]): reversed towards normal; neuropathic pain abnormalities (STZ-diabetic rats [1]; lower doses 1 and 3 mg/kg, treatment initiated 7 weeks after STZ, FIG. 23): Significant reduction in pain abnormalities; motor nerve conduction velocity (STZ-diabetic rats [2]): reversed the motor nerve conduction velocity towards normal; motor nerve conduction (STZ-diabetic rats [2]; lower doses 1 and 3 mg/kg, treatment from 7 weeks post STZ, 8 weeks after dosing): remained unimproved; sensory nerve conduction (STZ-diabetic rats [2]; lower doses 1 and 3 mg/kg, treatment from 7 weeks post STZ, within 4 weeks of treatment): significantly improved towards normal; sensory and motor nerve conduction velocity deficits (STZ-diabetic rats [2]; untreated until 60 days after STZ, external CRO, FIGS. 26 and 27): Partial reversal of both deficits; hyperalgesic response (withdrawal latency difference score) [3]: completely reversed; motor and sensory nerve conduction velocities (STZ-diabetic animals): increased both motor and sensory nerve conduction velocities; nerve conduction velocity (BB/W diabetic rats; 10 mg/kg daily, versus diabetic vehicle controls, from 8 weeks to six months, FIG. 12): significantly less severe nerve conduction deficits; withdrawal latency (BB/W diabetic rats; 10 mg/kg i.p. daily, versus diabetic vehicle-treated rats, from 4 weeks through six months of treatment, FIG. 11): longer withdrawal latencies
–	O=C(O)c1cccc(CC(CCCS)C(=O)O)c1 (stereo not drawn) [Compound E, 3-carboxy-alpha-(3-mercaptopropyl)benzenepropanoic acid]	neuropathic hyperalgesia (withdrawal latency) (STZ-diabetic rats [1]): reversed towards normal; motor nerve conduction velocity (STZ-diabetic rats [2]): reversed the motor nerve conduction velocity towards normal
